# Test results taken from EPA's ToxValDB 9.5.
# System: Rattus norvegicus
# Conditions: reproduction developmental, oral, gavage
# [1] = duration: 70 days, F, Crl:CD(SD), generation: P0, P0: Uterus: Uterus (With Cervix) Weight, Absolute + P0: Whole Body: Clinical Observations + P0: Whole Body: Maternal Food Consumption, …
# [2] = duration: 70 days, F, Crl:CD(SD), generation: P0, P0: Uterus: Uterus (With Cervix) Weight, Relative + P0: Whole Body: Maternal Body Weight Change + P0: Whole Body: Mortality + P0: Whole Body…
# [3] = duration: 70 days, M/F, Crl:CD(SD), generation: F1, F1: Whole Body: Clinical Observations + F1: Whole Body: Lactation Index + F1: Whole Body: Pup Mortality + F1: Whole Body: Pup Weight …
# [4] = duration: 70 days, M/F, Crl:CD(SD), generation: F1, F1: Whole Body: Pup Mortality + F1: Whole Body: Pup Weight Relative to Litter
# [5] = duration: 70 days, M, Crl:CD(SD), generation: P0, P0: Whole Body: Clinical Observations + P0: Whole Body: Mortality
# [6] = duration: 70 days, M, Crl:CD(SD), generation: P0, P0: Whole Body: Terminal Body Weight, Absolute
# [7] = duration: 84 days, M, Crl:CD(SD), generation: P0, P0: Seminal Vesicle: Seminal Vesicle Weight, Absolute + P0: Seminal Vesicle: Seminal Vesicle Weight, Relative + P0: Whole Body: Clinical …
# [8] = duration: 84 days, M, Crl:CD(SD), generation: P0, P0: Whole Body: Body Weight Change + P0: Whole Body: Terminal Body Weight, Absolute
# [9] = duration: 131 days, F, Crl:CD(SD), generation: P0, P0: Uterus: Uterus Weight, Absolute + P0: Uterus: Uterus Weight, Relative + P0: Whole Body: Clinical Observations
# [10] = duration: 131 days, F, Crl:CD(SD), generation: P0, P0: Whole Body: Body Weight Change + P0: Whole Body: Body Weight, Absolute + P0: Whole Body: Mortality
# [11] = duration: 131 days, M/F, Crl:CD(SD), generation: F1, F1: Kidney: Kidney Abnormalities + F1: Whole Body: Clinical Observations + F1: Whole Body: Dams with Liveborn Pups + F1: Whole Body: …
# [12] = duration: 131 days, M/F, Crl:CD(SD), generation: F1, F1: Whole Body: Pup Weight Relative to Litter
# [13] = F, Sprague-Dawley, generation: P0, P0: Developmental: Uterus: Implantation + P0: Developmental: Whole Body: No. Male Pups per No. of Pups Sexed + P0: Endocrine: Pituitary: …
# [14] = F, Sprague-Dawley, generation: P0, P0: Developmental: Uterus: Implantation + P0: Developmental: Whole Body: No. Male Pups per No. of Pups Sexed + P0: General Toxicity: Whole …
smiles,measurement,setting,value
OCCC(F)(F)C(F)(F)C(F)(F)C(F)(F)C(F)(F)C(F)(F)F [2-(Perfluorohexyl)ethanol],NEL,"duration: 70 days, F, Crl:CD(SD), generation: P0, P0: Lung: Lung Histopathology + P0: Mammary Gland: Mammary Gland Histopathology + P0: Ovaries: Ovary Histopathology + P0: Ovary: Ovary …",250 mg/kg-day
same,LEL,[1],125 mg/kg-day
same,NEL,[1],25 mg/kg-day
same,LEL,[2],250 mg/kg-day
same,NEL,[2],125 mg/kg-day
same,LEL,[3],250 mg/kg-day
same,NEL,[3],125 mg/kg-day
same,NEL,"duration: 70 days, M/F, Crl:CD(SD), generation: F1, F1: Whole Body: Live Pups Born + F1: Whole Body: Mean Pups Delivered + F1: Whole Body: Pup Mortality",250 mg/kg-day
same,LEL,[4],125 mg/kg-day
same,NEL,[4],25 mg/kg-day
same,NEL,"duration: 70 days, M, Crl:CD(SD), generation: P0, P0: Epididymides: Epididymides Histopathology + P0: Epididymis: Epididymis Weight, Left, Absolute + P0: Epididymis: Epididymis Weight, Left…",250 mg/kg-day
same,LEL,[5],125 mg/kg-day
same,NEL,[5],25 mg/kg-day
same,LEL,[6],250 mg/kg-day
same,NEL,[6],125 mg/kg-day
same,NEL,"duration: 84 days, M, Crl:CD(SD), generation: P0, P0: Epididymis: Epididymis Histopathology + P0: Epididymis: Epididymis Weight, Absolute + P0: Epididymis: Epididymis Weight, Relative + P0: …",250 mg/kg-day
same,LEL,[7],125 mg/kg-day
same,NEL,[7],25 mg/kg-day
same,LEL,[8],250 mg/kg-day
same,NEL,[8],125 mg/kg-day
same,NEL,"duration: 131 days, F, Crl:CD(SD), generation: P0, P0: Bladder: Urinary Bladder Histopathology + P0: Kidney: Kidney Histopathology + P0: Lung: Lung Histopathology + P0: Ovary: Ovary …",250 mg/kg-day
same,LEL,[9],125 mg/kg-day
same,NEL,[9],25 mg/kg-day
same,LEL,[10],250 mg/kg-day
same,NEL,[10],125 mg/kg-day
same,LEL,[11],250 mg/kg-day
same,NEL,[11],125 mg/kg-day
same,NEL,"duration: 131 days, M/F, Crl:CD(SD), generation: F1, F1: Whole Body: Dams with Stillborn Pups + F1: Whole Body: Live Pups Born + F1: Whole Body: Surviving Pups Per Litter",250 mg/kg-day
same,LEL,[12],125 mg/kg-day
same,NEL,[12],25 mg/kg-day
same,LOAEL,[13],125 mg/kg-day
same,NOAEL,[13],25 mg/kg-day
same,LOAEL,[14],125 mg/kg-day
same,NOAEL,[14],25 mg/kg-day
same,NOAEL,"F, Sprague-Dawley, generation: P0, P0: Endocrine: Pituitary: Pituitary Gland Histopathology + P0: Endocrine: Pituitary: Pituitary Gland Weight, Absolute + P0: Endocrine: …",250 mg/kg-day
same,LOAEL,"M/F, Crl:CD(SD), generation: P0, P0: Reproductive: Whole Body: Gestation Index",125 mg/kg-day
